The source of these data is PMC9506485, “Synthesis and Structure–Activity Relationships for the Anti-Mycobacterial Activity of 3-Phenyl-N-(Pyridin-2-ylmethyl)Pyrazolo[1,5-a]Pyrimidin-7-Amines” (Pharmaceuticals, 2022).

Structures are written as SMILES. Converted amounts (≈) assume the structure as drawn.

Data set [1] has as its system M. smegmatis inverted membrane vesicle. Details: method as in doi:10.1039/C5MD00589B, PMID 35140452. Conditions: M. smegmatis inverted membrane vesicle assay; cited from earlier work.
In the next data set the test system is M.tb bacteria. The arrangement: method as in doi:10.1039/C5MD00589B, PMID 35140452. The following applies: cited from earlier work.
A further data set relates to tuberculosis. The arrangement: method as in doi:10.1039/C5MD00589B, PMID 35140452. Conditions: cited from earlier work.
Data set [2] has as its system Mycobacterium tuberculosis (strain H37Rv). The experiment in a line: MABA minimum inhibitory concentration assay (aerobic/replicating). The format is cell-based. Conditions: M.tb H37Rv; for anti-mycobacterial activity in words: MABA/LORA; for MIC90: Mycobacterium tuberculosis, aerobic/replicating, 90% inhibition of growth.
The test system of data set [3] is VERO green monkey kidney cells. As to the kind of experiment: VERO mammalian cell toxicity assay. The format is cell-based. The following applies: Chlorocebus sabaeus; inhibition of growth of VERO green monkey kidney epithelial cells.
Data set [4] can be described thus: Microsomal stability, human liver microsomes. The format is in vitro ADME. The following applies: pH 7.4; for microsomal CLint at 1 μM: human liver microsomes, read-out: HLM Clint(mic). As to the method:
(§1) Assays were performed by WuXi AppTec (Shanghai) Co., Ltd. The test compounds (Table 4) (at 1 μM) were incubated at 37 °C with liver microsomes from human or CD-1 mice in the presence of a NADPH regenerating system and phosphate buffer (100 mM, pH 7.4) at 0.5 mg/mL microsomal protein (the positive controls were testosterone, propafenone, and diclofenac). Samples were removed at time intervals of 0, 5, 10, 20, 30, and 60 min and immediately mixed with cold CH3CN (containing 0.1 μg/mL of tolbutamide as an internal standard) and then centrifuged prior to analysis by LCMS/MS.
For orientation: Microsomes from liver hold many membrane-bound enzymes, among them those of drug oxidation.

Data set [5] in a line: Microsomal stability, mouse liver microsomes. The format is in vitro ADME. The following applies: for CLint scaled at 1 μM / half-life at 1 μM: CD-1, mouse, microsomes, pH 7.4; for microsomal CLint at 1 μM: CD-1, pH 7.4, mouse liver microsomes, read-out: MLM Clint(mic). As to the method: as §1
The target of the next data set is hERG (Homo sapiens, UniProt Q12809). As to the kind of experiment: hERG channel blockade, manual patch clamp. In kind it is cell-based. The following applies: cloned hERG potassium channels, room temperature; for inhibition at 0.3 µM: read-out: hERG % inhib. at 0.3 µM; for inhibition at 1 µM: read-out: hERG % inhib. at 1.0 µM. The method, then:
Selected compounds were evaluated for hERG channel blockade (Table 4) by WuXi AppTec (Shanghai) Co., Ltd. This was carried out using cloned hERG potassium channels according to their standard manual patch clamp method. Two concentrations (0.3 and 1.0 µM) were tested (at room temperature), and at least three replicates were obtained for each. Amitryptyline was used as a standard.
(In general: The hERG channel carries a current that helps repolarise heart muscle cells.)

The subject of data set [6] is Mycobacterium tuberculosis (strain H37Rv). The experiment in a line: LORA minimum inhibitory concentration assay (low-oxygen/non-replicating). The following applies: M.tb H37Rv, 90% inhibition of growth.
Where [7] appears, read: human/mouse liver microsomes not distinguished, read-out: T½ values (microsomal stability).

Chain of hERG (Q12809 whole entry): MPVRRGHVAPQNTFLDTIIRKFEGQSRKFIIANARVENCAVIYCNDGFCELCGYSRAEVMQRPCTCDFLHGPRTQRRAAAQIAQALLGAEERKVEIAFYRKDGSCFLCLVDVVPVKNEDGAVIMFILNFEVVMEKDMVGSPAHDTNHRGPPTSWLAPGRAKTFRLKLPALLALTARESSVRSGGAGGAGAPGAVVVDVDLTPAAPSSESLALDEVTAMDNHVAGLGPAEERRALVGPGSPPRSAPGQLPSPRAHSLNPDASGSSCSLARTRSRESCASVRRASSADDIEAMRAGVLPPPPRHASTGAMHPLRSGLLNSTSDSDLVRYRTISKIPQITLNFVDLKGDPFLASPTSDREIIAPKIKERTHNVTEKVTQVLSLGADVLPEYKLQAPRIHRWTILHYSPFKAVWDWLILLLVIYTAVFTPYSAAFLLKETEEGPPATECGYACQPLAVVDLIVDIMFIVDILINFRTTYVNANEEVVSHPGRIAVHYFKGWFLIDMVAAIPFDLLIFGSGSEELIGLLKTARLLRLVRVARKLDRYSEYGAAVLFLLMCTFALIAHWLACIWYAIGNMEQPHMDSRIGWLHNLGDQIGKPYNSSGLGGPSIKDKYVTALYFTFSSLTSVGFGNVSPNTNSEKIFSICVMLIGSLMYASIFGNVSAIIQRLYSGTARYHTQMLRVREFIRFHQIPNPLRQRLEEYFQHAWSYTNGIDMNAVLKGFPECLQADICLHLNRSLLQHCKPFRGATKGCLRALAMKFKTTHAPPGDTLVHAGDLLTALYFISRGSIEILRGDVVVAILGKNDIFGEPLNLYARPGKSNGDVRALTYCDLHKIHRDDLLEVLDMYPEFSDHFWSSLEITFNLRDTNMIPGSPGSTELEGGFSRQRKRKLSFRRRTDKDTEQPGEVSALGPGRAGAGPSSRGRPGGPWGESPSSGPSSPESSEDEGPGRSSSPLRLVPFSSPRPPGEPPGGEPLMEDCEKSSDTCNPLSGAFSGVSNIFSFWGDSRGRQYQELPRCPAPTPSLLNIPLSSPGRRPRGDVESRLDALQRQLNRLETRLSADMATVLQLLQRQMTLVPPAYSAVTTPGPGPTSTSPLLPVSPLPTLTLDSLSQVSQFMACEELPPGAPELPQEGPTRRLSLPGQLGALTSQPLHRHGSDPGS

In the case of `CN(C)CCOc1ncc(Nc2cc(C(F)(F)F)nc3cc(-c4ccc(F)cc4)nn23)cc1F` [Compound 6], the “depletion of ATP” value in data set [1] is “modest inhibitors”. Also, in the data set on M.tb bacteria, the “inhibition of M.tb bacteria in culture” value is recorded as “modest inhibitors”. In addition, the “activity in vivo in an acute mouse model of tuberculosis” value in the data set on tuberculosis is recorded as “active in vivo”.
On to `Fc1ccc(-c2cnn3c(NCc4ccccn4)cc(-c4ccccc4)nc23)cc1` [Compound 18, 3-(4-Fluorophenyl)-5-phenyl-N-(pyridin-2-ylmethyl)pyrazolo[1,5-a]pyrimidin-7-amine], for which the melting point lay in the range of 191 to 193 °C. Also, in data set [2], the “anti-mycobacterial activity in words” value was “active” and the MIC90 is 3.8 µg/mL (≈ 9.61 µM). The molecule further returned an IC50 in data set [3] of more than 32 µg/mL. In data set [4] (human, microsomes), this molecule had a CLint scaled at 1 μM of 12 mL/min/kg and a half-life at 1 μM of 1.75 h. In addition, in data set [4], the microsomal CLint at 1 μM was 13 µL/min/mg. The half-life at 1 μM in data set [4] (setting [7]) was less than 1.42 h. Further, in data set [5], the CLint scaled at 1 μM was 99 mL/min/kg, the half-life at 1 μM was 0.933 h and the microsomal CLint at 1 μM was 25 µL/min/mg. Moreover, on hERG, the inhibition at 0.3 µM is 0.3% and the inhibition at 1 µM worked out at 5%. Further, the “MIC90 LORA” value in data set [6] was 0.40 µg/mL (≈ 1.01 µM).
Regarding `Fc1ccc(-c2cnn3c(NCc4ccc(Cl)cn4)cc(-c4ccccc4)nc23)cc1` [Compound 53, N-((5-Chloropyridin-2-yl)methyl)-3-(4-fluorophenyl)-5-phenylpyrazolo[1,5-a]pyrimidin-7-amine], the melting point fell in the range of 139 to 141 °C. In [2], this molecule displayed an MIC90 of 4.9 µg/mL (≈ 11.4 µM). The molecule further had an IC50 in data set [3] of more than 32 µg/mL. In data set [4] (human, microsomes), this molecule came in with a CLint scaled at 1 μM of less than 8.6 mL/min/kg and a half-life at 1 μM of more than 2.42 h. Further, the microsomal CLint at 1 μM in data set [4] is less than 9.6 µL/min/mg. In addition, in data set [5], the CLint scaled at 1 μM is less than 38 mL/min/kg, the half-life at 1 μM is more than 2.42 h and the microsomal CLint at 1 μM is less than 9.6 µL/min/mg. Moreover, at hERG, the inhibition at 0.3 µM was determined as 0.7% and the inhibition at 1 µM was determined as 0%. Besides, the “MIC90 LORA” value in data set [6] was determined as 7.2 µg/mL (≈ 16.7 µM).
Regarding `COc1ccc(-c2cnn3c(NCc4ccccn4)cc(-c4ccccc4)nc23)cc1` [Compound 20, 3-(4-Methoxyphenyl)-5-phenyl-N-(pyridin-2-ylmethyl)pyrazolo[1,5-a]pyrimidin-7-amine], the melting point is 187 to 189 °C. Moreover, in data set [2], the “anti-mycobacterial activity in words” value is “active” and the MIC90 was found to be 3.6 µg/mL (≈ 8.83 µM). This molecule also had an IC50 in [3] of more than 32 µg/mL. For the same molecule, in data set [4] (human, microsomes), the CLint scaled at 1 μM was determined as 20 mL/min/kg and the half-life at 1 μM was found to be 1.03 h. In addition, the microsomal CLint at 1 μM in data set [4] came to 22 µL/min/mg. The half-life at 1 μM in [4] (setting [7]) was less than 1.42 h. Also, in data set [5], the CLint scaled at 1 μM was determined as 92 mL/min/kg, the half-life at 1 μM came out at 1 h and the microsomal CLint at 1 μM was determined as 23 µL/min/mg. Moreover, at hERG, the inhibition at 0.3 µM was 0% and the inhibition at 1 µM was determined as 0%. Also, in data set [6], the “MIC90 LORA” value is reported as 0.51 µg/mL (≈ 1.25 µM).
As for `CN(C)CCOc1ncc(Nc2cc(-c3ccccc3)nc3cc(-c4ccc(F)cc4)nn23)cc1F` [Compound 5], the “depletion of ATP” value in data set [1] was “modest inhibitors”. In the data set on M.tb bacteria, the “inhibition of M.tb bacteria in culture” value is “modest inhibitors”. The “activity in vivo in an acute mouse model of tuberculosis” value with tuberculosis is recorded as “active in vivo”.
Molecule `Fc1ccc(-c2cnn3c(NCc4cc(N5CCCCC5)ccn4)cc(-c4ccccc4)nc23)cc1` [Compound 68, 3-(4-Fluorophenyl)-5-phenyl-N-((4-(piperidin-1-yl)pyridin-2-yl)methyl)pyrazolo[1,5-a]pyrimidin-7-amine] returned a melting point of 189 to 191 °C. The molecule also showed an MIC90 in data set [2] of 0.96 µg/mL (≈ 2.01 µM). This molecule came in with an IC50 in data set [3] of more than 32 µg/mL. In [4] (human, microsomes), this molecule had a CLint scaled at 1 μM of 11 mL/min/kg and a half-life at 1 μM of 1.87 h. In addition, the microsomal CLint at 1 μM in data set [4] was 12 µL/min/mg. Further, in data set [5], the CLint scaled at 1 μM is 92 mL/min/kg, the half-life at 1 μM is 1 h and the microsomal CLint at 1 μM amounted to 23 µL/min/mg. Also, on hERG, the inhibition at 0.3 µM was found to be 19% and the inhibition at 1 µM was found to be 36%. Also, in data set [6], the “MIC90 LORA” value amounted to 0.85 µg/mL (≈ 1.78 µM).
The molecule `Fc1ccc(-c2cnn3c(NCc4ccc(F)cn4)cc(-c4ccccc4)nc23)cc1` [Compound 52, 3-(4-Fluorophenyl)-N-((5-fluoropyridin-2-yl)methyl)-5-phenylpyrazolo[1,5-a]pyrimidin-7-amine] returned a melting point of 118 to 120 °C. The same molecule showed an MIC90 in data set [2] of 3.7 µg/mL (≈ 8.95 µM). In addition, the IC50 in data set [3] was more than 32 µg/mL. In data set [4] (human, microsomes), this molecule registered a CLint scaled at 1 μM of 11 mL/min/kg and a half-life at 1 μM of 1.81 h. Also, in data set [4], the microsomal CLint at 1 μM was 13 µL/min/mg. In addition, in data set [5], the CLint scaled at 1 μM came out at 50.3 mL/min/kg, the half-life at 1 μM worked out at 1.82 h and the microsomal CLint at 1 μM turned out to be 12.7 µL/min/mg. Further, on hERG, the inhibition at 0.3 µM turned out to be 0.8% and the inhibition at 1 µM was 11%. Further, the “MIC90 LORA” value in data set [6] was found to be 3.4 µg/mL (≈ 8.22 µM).
With `COc1ccnc(CNc2cc(-c3ccccc3)nc3c(-c4ccc(F)cc4)cnn23)c1` [Compound 63, 3-(4-Fluorophenyl)-N-((4-methoxypyridin-2-yl)methyl)-5-phenylpyrazolo[1,5-a]pyrimidin-7-amine], the melting point lay within 205 to 208 °C. Moreover, in data set [2], the MIC90 amounted to 1.9 µg/mL (≈ 4.47 µM). The IC50 in data set [3] was more than 32 µg/mL. Further, in data set [4] (human, microsomes), the CLint scaled at 1 μM is less than 8.6 mL/min/kg and the half-life at 1 μM was more than 2.42 h. In data set [4], the microsomal CLint at 1 μM is less than 9.6 µL/min/mg. Moreover, in data set [5], the CLint scaled at 1 μM is less than 38 mL/min/kg, the half-life at 1 μM was more than 2.42 h and the microsomal CLint at 1 μM was less than 9.6 µL/min/mg. For the same molecule, at hERG, the inhibition at 0.3 µM was 2.3% and the inhibition at 1 µM came to 4.6%. For the same molecule, in data set [6], the “MIC90 LORA” value came out at 0.5 µg/mL (≈ 1.18 µM).
The molecule `Fc1ccc(-c2cnn3c(NCc4ccccn4)cc(-c4cccnc4)nc23)cc1` [Compound 39, 3-(4-Fluorophenyl)-N-(pyridin-2-ylmethyl)-5-(pyridin-3-yl)pyrazolo[1,5-a]pyrimidin-7-amine] came in with an MIC90 in data set [2] of 2.3 µg/mL (≈ 5.8 µM). The IC50 in [3] is more than 32 µg/mL. Also, the CLint scaled at 1 μM in data set [4] (human, microsomes) was determined as 57 mL/min/kg; in data set [5], 445 mL/min/kg. The half-life at 1 μM is 0.367 h in data set [4] (human, microsomes); less than 1.42 h in [4] (setting [7]); 0.2 h in [5]. Further, the microsomal CLint at 1 μM came out at 63 µL/min/mg in data set [4] and 112 µL/min/mg in data set [5]. Besides, the inhibition at 0.3 µM on hERG amounted to 16%. For the same molecule, on hERG, the inhibition at 1 µM was found to be 46%. Further, the “MIC90 LORA” value in data set [6] turned out to be 0.30 µg/mL (≈ 0.757 µM).
For the molecule `Fc1ccc(-c2cnn3c(NCc4ccccn4)cc(-c4ccsc4)nc23)cc1` [Compound 42, 3-(4-Fluorophenyl)-N-(pyridin-2-ylmethyl)-5-(thiophen-3-yl)pyrazolo[1,5-a]pyrimidin-7-amine], in data set [2], the MIC90 was 1.4 µg/mL (≈ 3.49 µM). In [3], this molecule had an IC50 of more than 32 µg/mL. Also, in data set [4] (human, microsomes), the CLint scaled at 1 μM came to 43 mL/min/kg and the half-life at 1 μM was found to be 0.483 h. The microsomal CLint at 1 μM in [4] was 47 µL/min/mg. For the same molecule, the half-life at 1 μM in [4] (setting [7]) was less than 1.42 h. In data set [5], the CLint scaled at 1 μM was 298 mL/min/kg, the half-life at 1 μM is 0.3 h and the microsomal CLint at 1 μM is 75 µL/min/mg. Further, on hERG, the inhibition at 0.3 µM turned out to be 9% and the inhibition at 1 µM worked out at 24%. Further, the “MIC90 LORA” value in [6] was found to be 0.22 µg/mL (≈ 0.548 µM).

One may read the MIC90 as an inhibitory concentration at the 90% level, which refers to growth in some studies and to a panel of isolates in others. A word on the IC50: it is the midpoint of a concentration-inhibition curve. A word on the CLint scaled: it is a measure of how fast metabolising enzymes remove a compound, apart from limits set by blood flow. As usually defined, the melting point is the temperature of the solid-liquid transition.
